For this assay, the target named is T1, PfMCA-2 (metacaspase-2) (Plasmodium falciparum, UniProt Q8IL84).
T1 construct: gene MCA2; catalytic domain
As to the kind of experiment: fluorogenic Z-GRR-AMC cleavage assay with recombinant enzyme, Michaelis-Menten nonlinear regression. It is filed as biochemical.

From paper PMC8973346, “Dissecting The role of Plasmodium metacaspase-2 in malaria gametogenesis and sporogony” (Emerging Microbes & Infections, 2022) come the findings set out here.

T1 sequence (Q8IL84 1650-2020): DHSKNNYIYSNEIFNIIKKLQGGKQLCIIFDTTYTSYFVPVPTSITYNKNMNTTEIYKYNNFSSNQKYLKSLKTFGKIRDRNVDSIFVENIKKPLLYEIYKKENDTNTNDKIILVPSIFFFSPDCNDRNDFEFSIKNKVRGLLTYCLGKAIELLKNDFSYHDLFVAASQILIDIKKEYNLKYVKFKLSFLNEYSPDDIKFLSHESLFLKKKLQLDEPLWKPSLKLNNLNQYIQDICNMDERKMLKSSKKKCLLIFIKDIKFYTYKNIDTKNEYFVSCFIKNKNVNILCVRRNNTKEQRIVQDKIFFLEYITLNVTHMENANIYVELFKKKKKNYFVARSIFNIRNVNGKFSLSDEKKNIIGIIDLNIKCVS

As to `CC(C)c1ccc(CNc2ccc3oc(CC4CCCCC4)nc3c2)cc1` [C-532], the Ki – broadly, the dissociation constant of the complex between target and ligand, obtained from inhibition or displacement – was 2.1 ± 0.12 nM.

Turning to `CCCc1ccc(CNc2ccc3oc(CC4CCCCC4)nc3c2)cc1` [C-533], the Ki was 1.62 ± 0.22 nM.
